According to patent US5874272A, “Inosine-guanosine kinase” (Kyowa Hakko Kogyo Co., Ltd., priority 1998, dated 1999):

Legend:
Assay type in all cases: biochemical
inosine-guanosine kinase [1] = target: T1, inosine-guanosine kinase (Escherichia coli, UniProt P0AEW6); assay: Substrate specificity (phosphate-donor / phosphate-acceptor); conditions: for suitability as phosphate-donor (in words): 5 mM phosphate source instead of ATP, 300 mM KCl, 30° C., inosine as acceptor; for suitability as phosphate-acceptor (in words): ATP or dATP as phosphate-donor
T1 construct: made in house; host or cells: Escherichia coli
T1 sequence (P0AEW6 1-434): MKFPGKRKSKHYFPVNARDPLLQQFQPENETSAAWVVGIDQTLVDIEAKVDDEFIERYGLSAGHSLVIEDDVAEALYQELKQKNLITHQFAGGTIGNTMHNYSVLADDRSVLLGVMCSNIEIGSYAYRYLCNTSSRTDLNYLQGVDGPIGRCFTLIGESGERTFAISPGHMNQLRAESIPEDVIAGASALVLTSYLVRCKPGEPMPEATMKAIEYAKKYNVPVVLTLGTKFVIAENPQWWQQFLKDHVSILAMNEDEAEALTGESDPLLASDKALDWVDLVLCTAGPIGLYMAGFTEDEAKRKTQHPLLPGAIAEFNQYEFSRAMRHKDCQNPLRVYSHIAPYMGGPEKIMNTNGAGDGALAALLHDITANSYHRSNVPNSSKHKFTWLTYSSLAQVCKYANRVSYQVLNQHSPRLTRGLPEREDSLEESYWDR
Procedure: (§1) The activity of the inosine-guanosine kinase obtained is determined as follows. A reaction solution (hereafter referred to as reaction solution a) having a composition of 100 mM HEPES buffer (pH 7.2), 10 mM MgSO4, 50 mM KCl, 1 mM ATP and 1 mM inosine is brought into contact with the inosine-guanosine kinase in a concentration of about 10 μg protein/ml followed by reaction at 30° C. for about 30 minutes. During the course of reaction, a part of the reaction solution is subjected to sampling intermittently. After the reaction solution is diluted to 1/20 with 0.2M NaH2 PO4 (adjusted the pH to 2.6 with H3 PO4) to stop the reaction, an amount of 5'-IMP in the stopped reaction solution is quantitatively determined by HPLC. Analysis by HPLC is made by using 0.2M NaH2 PO4 (pH 2.6) at a flow rate of 1 ml/min. as an eluting solution and Asahipak GS-320H (manufactured by Asahi Chemical Co., Ltd.) as a column. Detection of components was made by the absorbance at UV absorbance at 254 nm as an index. Quantitative determination was made by comparing absorbancy with that of the standard.
In the method for determination of inosine-guanosine kinase activity described above, a reaction is carried out at 30° C. by changing the concentration of KCl to 300 mM in the composition of reaction solution a and adding various neutralized phosphate sources to the reaction solution instead of ATP in a final concentration of 5 mM. […] Where ATP or dATP is used as phosphate-donor, inosine and guanosine are preferred as phosphate-acceptor.
FIG. 1 relates to substrate specificity for inosine-guanosine kinase, wherein the ordinate represents an amount of 5'-IMP produced and the abscissa represents time.

inosine-guanosine kinase [2] = target: T1, inosine-guanosine kinase; assay: Effect of added metal salts on inosine-guanosine kinase activity (inhibitor test); conditions: 300 mM KCl; for Relative Activity (%): 1 mM metal salt added to reaction solution a, 30° C., 30 minutes, no metal salt = 100; for inhibition of the enzyme by metal ions (in words): 1 mM metal salt
Procedure: as §1
In the method for determination of inosine-guanosine kinase activity described above, the activity is determined by reacting at 30° C. for 30 minutes except that the concentration of KCl is changed to 300 mM and 1 mM metal salt is added to the composition of reaction solution a. The activity is determined as a standard when no metal salt is added. The enzyme is inhibited by metal ions such as CO^2+, Cu^2+, Zn^2+, etc.

inosine-guanosine kinase [3] = target: T1, inosine-guanosine kinase; assay: Activation of inosine-guanosine kinase by divalent or trivalent metal ion salts instead of MgSO4; conditions: for Produced IMP: 10 mM metal salt instead of MgSO4, 300 mM KCl; for activating action on the enzyme (in words): metal ion salt instead of MgSO4, 300 mM KCl
Procedure: as §1
In the method for determination of inosine-guanosine kinase activity described above, a reaction is carried out by changing the buffer to Tris-hydrochloride buffer (pH 8.0), and varying the concentration of KCl in the composition of reaction solution a. […] Next, activation is examined in the system where the concentration of KCl is changed to 300 mM in the composition of reaction solution a, by adding various divalent or trivalent metal ion salts instead of MgSO4.

inosine-guanosine kinase [4] = target: T1, inosine-guanosine kinase; assay: K+ (KCl) dependency of inosine-guanosine kinase; conditions: Tris-hydrochloride buffer (pH 8.0); KCl varied, or 100 mM NaCl instead of KCl
Procedure: as §1
In the method for determination of inosine-guanosine kinase activity described above, a reaction is carried out by changing the buffer to Tris-hydrochloride buffer (pH 8.0), and varying the concentration of KCl in the composition of reaction solution a. […]

SMILES | suitability as phosphate-donor (in words) (inosine-guanosine kinase [1]) | Relative Activity (%) (inosine-guanosine kinase [2]) | Produced IMP (inosine-guanosine kinase [3]) [mM] | other results
Nc1ncnc2c1ncn2[C@@H]1O[C@H](COP(=O)(O)O)[C@@H](O)[C@H]1O [5'-AMP, adenosine monophosphate] | could not be phosphate-donors | – | – | –
Nc1ccn([C@@H]2O[C@H](COP(=O)(O)O)[C@@H](O)[C@H]2O)c(=O)n1 [5'-CMP, cytidine monophosphate] | could not be phosphate-donors | – | – | –
O=C(O)c1cc(=O)[nH]c(=O)n1[C@@H]1O[C@H](COP(=O)(O)O)[C@@H](O)[C@H]1O [5'-OMP, orotic acid monophosphate] | could not be phosphate-donors | – | – | –
Nc1ncnc2c1ncn2[C@@H]1O[C@H](COP(=O)(O)OP(=O)(O)O)[C@@H](O)[C@H]1O [ADP, adenosine diphosphate] | could not be phosphate-donors | – | – | –
Nc1ncnc2c1ncn2[C@@H]1O[C@H](COP(=O)(O)OP(=O)(O)OP(=O)(O)O)[C@@H](O)[C@H]1O [ATP, adenosine triphosphate] | good substrate | – | – | –
[Ba+2].[Cl-].[Cl-] [BaCl2] | – | 116 | 0 | –
[Co+2] [CO^2+] | – | – | – | inhibition of the enzyme by metal ions (in words) (inosine-guanosine kinase [2]): inhibited
[Ca+2].[Cl-].[Cl-] [CaCl2] | – | 107 | 0 | –
[Cl-].[Cl-].[Co+2] [CoCl2] | – | 32 | 0.01 | –
[Cl][Cu][Cl] [CuCl2] | – | 1 | 0 | –
[Cu+2] [Cu^2+] | – | – | – | inhibition of the enzyme by metal ions (in words) (inosine-guanosine kinase [2]): inhibited
[Cl][Fe][Cl] [FeCl2] | – | 112 | 0 | –
[Cl][Fe]([Cl])[Cl] [FeCl3] | – | 131 | 0 | –
Nc1nc2c(ncn2[C@@H]2O[C@H](COP(=O)(O)OP(=O)(O)OP(=O)(O)O)[C@@H](O)[C@H]2O)c(=O)[nH]1 [GTP, guanosine triphosphate] | could not be phosphate-donors | – | – | –
[K+] [K^+] | – | – | – | monovalent cation requirement for activation (in words) (inosine-guanosine kinase [4]): requires
[Cl-].[Cl-].[Mg+2] [MgCl2] | – | – | 0.60 | –
O=S(=O)([O-])[O-].[Mg+2] [MgSO4] | – | – | 0.68 | –
[Mg+2] [Mg^2+] | – | – | – | activating action on the enzyme (in words) (inosine-guanosine kinase [3]): exhibit an activating action

SMILES | suitability as phosphate-donor (in words) (inosine-guanosine kinase [1]) | Relative Activity (%) (inosine-guanosine kinase [2]) | Produced IMP (inosine-guanosine kinase [3]) [mM] | other results
[Cl][Mn][Cl] [MnCl2] | – | 134 | 0.51 | –
O=S(=O)([O-])[O-].[Mn+2] [MnSO4] | – | – | 0.64 | –
[Mn+2] [Mn^2+] | – | – | – | activating action on the enzyme (in words) (inosine-guanosine kinase [3]): exhibit an activating action
[Cl-].[Na+] [NaCl] | – | 104 | – | monovalent cation requirement for activation (in words) (inosine-guanosine kinase [4]): no reaction proceeds
[F-].[Na+] [NaF] | – | 96 | – | –
O=c1ccn([C@@H]2O[C@H](COP(=O)(O)OP(=O)(O)OP(=O)(O)O)[C@@H](O)[C@H]2O)c(=O)[nH]1 [UTP, uridine triphosphate] | the reaction proceeds a little bit | – | – | –
CC(=O)[O-].CC(=O)[O-].[Zn+2] [Zn(CH3 COO)2] | – | 5 | 0 | –
O=S(=O)([O-])[O-].[Zn+2] [ZnSO4] | – | 5 | 0 | –
[Zn+2] [Zn^2+] | – | – | – | inhibition of the enzyme by metal ions (in words) (inosine-guanosine kinase [2]): inhibited
CC(=O)OP(=O)(O)O [acetylphosphoric acid] | could not be phosphate-donors | – | – | –
Nc1ncnc2c1ncn2[C@H]1C[C@H](O)[C@@H](COP(=O)(O)OP(=O)(O)OP(=O)(O)O)O1 [dATP, deoxyadenosine triphosphate] | good substrate | – | – | –
Nc1nc2c(ncn2[C@@H]2O[C@H](CO)[C@@H](O)[C@H]2O)c(=O)[nH]1 [guanosine] | – | – | – | suitability as phosphate-acceptor (in words) (inosine-guanosine kinase [1]): preferred
OC[C@H]1O[C@@H](n2cnc3c(O)ncnc32)[C@H](O)[C@@H]1O [inosine] | – | – | – | suitability as phosphate-acceptor (in words) (inosine-guanosine kinase [1]): preferred
O=P(O)(O)O [phosphoric acid] | could not be phosphate-donors | – | – | –
O=P(O)(O)OP(=O)(O)O [pyrophosphoric acid] | could not be phosphate-donors | – | – | –
O=P(O)(O)OP(=O)(O)OP(=O)(O)OP(=O)(O)O [tetrapolyphosphoric acid] | could not be phosphate-donors | – | – | –
O=P(O)(O)OP(=O)(O)OP(=O)(O)O [tripolyphosphoric acid] | could not be phosphate-donors | – | – | –
